Test results published in US20060110376A1, “MDA-7 and free radicals in the treatment of cancer” (priority 2002, published 2006).

Assays:
[1] = tested on: normal cells (immortalized human astrocytes or melanocytes); experiment: MTT viability assay; assay type: cell-based; conditions: Ad.mda-7 100 p.f.u./cell
Procedure: MTT Viability Assays. Cell viability was assessed by MTT assays as described (Lebedeva et al., 2000, Cancer Research 60:6052-6060). Briefly, cells were seeded in 96-well tissue culture plates (1.5×10^3 cells per well) and treated with various agents. At the indicated times, medium was removed, and fresh medium containing 0.5 mg/ml MTT was added to each well. The cells were incubated at 37° C. for 4 h and then an equal volume of solubilization solution (0.01N HCl in 10% SDS) was added to each well and mixed thoroughly. The optical density from the plates was read on a BioRad Microplate Reader Model 550 at 595 nm.

[2] = tested on: primary renal epithelial cells; experiment: MTT cell growth assay; assay type: cell-based, human; conditions: low concentrations, each agent alone
Procedure: (§1) FIG. 25A-D. GST-MDA-7 causes a dose-dependent reduction in the proliferation of renal carcinoma cells but not primary renal epithelial cells. Cells were plated in 12 well plates (˜1×10^4 cells/well) and 24 h later treated with increasing concentrations of GST and GST-MDA-7 as indicated. Cell growth was determined via MTT assay 96 h after GST-MDA-7 treatment. Data are the means of 12 wells (one plate per condition, ±SEM) from a representative experiment using different preparations of GST-MDA-7 (n=3). Panel A. UOK121N cells. Panel B. A498 cells. Panel C. Primary renal epithelial cells. Panel D. Primary rat hepatocytes were isolated and cultured as described in Methods. Four hours after plating, hepatocytes were infected with either control CMV virus or Ad.mda-7 (at a multiplicity of infection of 50). […] Cell growth was determined via MTT assay 96 h after MDA-7 treatment. […]
(§2) FIG. 27A-C. […] Cell growth was determined via MTT assay 96 h after GST-MDA-7 treatment. […]
(§3) MTT Assay for Determination of Cellular Viability. […] The cytotoxicity of the various treatments was assessed four days after irradiation by measurement of cell viability by use of the MTT assay, as described previously (McKinstry et al., 2002, Cancer Biol. Ther. 1:243-253). The plates were read on a Dynatech MR600 Microplate Reader at 540 nm. […]

[3] = tested on: RCC cell lines A498 and UOK121N; experiment: MTT cell growth assay; assay type: cell-based, human; conditions: As2O3 0.5 μM; 96 h
Procedure: as §1, §2, §3

[4] = tested on: renal carcinoma cells (UOK121N, A498); experiment: Clonogenic survival assay; assay type: cell-based, human; conditions: arsenic trioxide (0.5 μM) alone
Procedure: Panel A. UOK121N cells. Panel B. A498 cells. Cells were plated in 6 well plates (˜5×10^4 cells/well) and 24 h later treated with GST, GST-MDA-7 (both 0.5 nM) and As2O3 (0.5 μM) as indicated. Cells were isolated 96 h after GST-MDA-7 treatment and cell viability determined using trypan blue exclusion assay (see FIG. 28). Based on trypan blue negative viable cell values, 250, 500 and 2000 viable cells were re-plated in Linbro plates. The plating density for colony formation assays depended upon the prior treatment of the cells and data obtained in FIGS. 27 and 28. 10-14 days after plating, cells were fixed and stained with crystal violet. Colony formation was determined using visual counting, and a colony was defined as a group of >50 cells. Data are the means of 3 separate experiments (±SEM). * p<0.05 less than control cells; # p<0.05 less than As2O3 or GST-MDA-7 treated cells.
Cell Survival Analyses. Cells were assayed for the effect(s) of GST-MDA-7 and arsenic trioxide on cell survival. Cells were plated (10,000 cells per 60 mm dish) and 24 h after plating treated with GST-MDA-7 or GST. Thirty minutes later, cells were treated with arsenic trioxide. Ninety-six hours later, cells were isolated by trypsinization and viable trypan blue negative cells re-plated in 60 mm dishes at 250-1,000 cells per plate. […] Colonies that contain more than 50 cells were then counted. […]

[5] = tested on: A498, UOK121N and primary renal epithelial cells; experiment: MTT cell growth assay, arsenic trioxide alone; assay type: cell-based, human
Procedure: FIG. 26. Arsenic trioxide causes a concentration-dependent reduction in primary and renal carcinoma cell growth. Cells were plated in 12 well plates (˜1×10^4 cells/well) and 24 h later treated with increasing concentrations of As2O3 as indicated. Cell growth was determined via MTT assay 96 h after GST-MDA-7 treatment. Data are the means of 12 wells (one plate per condition, ±SEM) from a representative experiment using separate As2O3 formulations (n=3). Arsenic trioxide caused a dose-dependent enhancement in cell killing at higher concentrations >10 μM.
MTT Assay for Determination of Cellular Viability. The MTT test is based on the enzymatic reduction of the tetrazolium salt MTT in living, metabolically active cells but not in dead cells. Cells were plated (5-10,000 cells per well of a 12 well plate) and 24 h after plating treated with either GST or GST-MDA-7 at the indicated concentrations. Thirty minutes after protein treatment, cells were treated with arsenic trioxide at the indicated concentrations. The cytotoxicity of the various treatments was assessed four days after irradiation by measurement of cell viability by use of the MTT assay, as described previously (McKinstry et al., 2002, Cancer Biol. Ther. 1:243-253). The plates were read on a Dynatech MR600 Microplate Reader at 540 nm. […]

**Q.** How did the “growth, combinational treatment with Ad.mda-7” value [1] turn out when arsenic trioxide was run?
**A.** does not affect growth of normal cells

**Q.** What about the growth potential [2] of the same substance?
**A.** Neither low concentrations of arsenic trioxide nor GST-MDA-7 alone altered the growth potential

**Q.** What about the “effect of arsenic trioxide on growth suppression by GST-MDA-7” value [3] of the same substance?
**A.** enhanced the growth suppressive effects of GST-MDA-7

**Q.** What about the clonogenicity [4] of the same substance?
**A.** significantly reduced clonogenicity

**Q.** And the “concentrations giving dose-dependent enhancement in cell killing” value [5]?
**A.** > 10 µM

**Q.** What about the “concentration above which proliferation was dose-dependently reduced” value ([5]; 96 h) of the same substance?
**A.** above 1 μM
